Consider one compound from patent US11311485B2, “Self-assembled particles for targeted delivery of immunomodulators to treat autoimmunity and cancer” (UNIVERSITY OF MARYLAND, BALTIMORE COUNTY, priority 2018, dated 2022).

A short description of this data set: Loading capacity of filomicelles (PEG PPS) with other immunosuppressives used in lupus. The format is physicochemical. Conditions: drug per mg of filomicelles, FIG. 10. The text has this: Transmission electron microscopy (TEM) images of loaded and unloaded FMs show no difference in morphology or structure, as shown in FIG. 3.

For the compound `Cn1cnc([N+](=O)[O-])c1Sc1ncnc2nc[nH]c12` [AZA, azathioprine], the “loading into filomicelles (PEG-PPS)” value is roughly 400 µg/mg.
